“Also recorded” adds a separate entry of the source.
Key:
Assay type in all cases: physicochemical
[1] = Grinding test for Crystalline Form A
Method: 30 mg Crystalline Form A was manually ground for 5 minutes in a mortar and pestle. […] 30 mg of Crystalline Form A and […] of EtOH were placed in a mortar and pestle, and manually ground for 5 minutes. […] 30 mg of Crystalline Form A and […] of H2O were placed in a mortar and pestle, and manually ground for 5 minutes.

[2] = Stability testing of 5 crystalline forms over 8 weeks at harsh conditions (40° C., 75% relative humidity)
Method: Stability testing was carried out over 8 weeks at harsh conditions (40° C., 75%, relative humidity) on the 5 crystalline forms obtained in Example 3.

[3] = Water sorption and desorption study, DVS cycle; details: 25° C.
Method: Using SMS DVS Advantage 1, 10 mg sample was placed in a mesh stainless steel basket. The overall test cycle comprises scanning two times (sorption and desorption) at 10% RH intervals in a 40 to 90% range (60 to 360 minutes for each humidity level) at a constant temperature (25° C.). Using SMS DVS Advantage 1, 10 mg of Crystalline Form A was placed in a mesh stainless steel basket. The overall test cycle comprises scanning two times (sorption and desorption) at 10% RH intervals in a 40 to 90% range (60 to 360 minutes for each humidity level) at a constant temperature (25° C.). Approximately 0.7% weight increase and absorption and loss relative to sorption level indicates a non-hygroscopic sample. FIG. 38 is an isotherm curve for Crystalline Form A (weight change % v. RH %), and a kinetic curve of weight change % v. time and relative humidity %.

[4] = Pressurization test for Crystalline Form A; details: 3 minutes each at 2, 3 and 4 MPa
Method: 100 mg of Crystalline Form A was placed in a die cavity, then made into tablets by pressing for 3 minutes each at pressures of 2, 3 and 4 MPa using an upper punch.

[5] = 40° C./75% RH, 1 week, listed as Crystalline Form XII
[6] = 40° C./75% RH, 2 weeks, listed as Crystalline Form XII
[7] = 40° C./75% RH, 8 weeks, listed as Crystalline Form XII
[8] = Initial, listed as Crystalline Form XII

Row | Structure (SMILES) | Assay ([2]; Initial) [%] | Assay ([2]; 40° C./75% RH, 1 week) [%] | Purity ([2]; 40° C./75% RH, 1 week) [%] | XRPD Patterns ([2]; 40° C./75% RH, 1 week) | Assay ([2]; 40° C./75% RH, 2 weeks) [%] | Purity ([2]; 40° C./75% RH, 2 weeks) [%] | XRPD Patterns ([2]; 40° C./75% RH, 2 weeks) | Assay ([2]; 40° C./75% RH, 4 weeks) [%] | Purity ([2]; 40° C./75% RH, 4 weeks) [%] | XRPD Patterns ([2]; 40° C./75% RH, 4 weeks) | Assay ([2]; 40° C./75% RH, 8 weeks) [%] | Purity ([2]; 40° C./75% RH, 8 weeks) [%] | XRPD Patterns ([2]; 40° C./75% RH, 8 weeks) | Purity ([2]; Initial) [%] | XRPD Patterns ([2]; Initial) | also measured
1 | O=S1(=O)CCN(Cc2cc(NC3CCOCC3)c3[nH]c(-c4ccccc4)cc3c2)CC1 [Crystalline Form A, 5-[(1,1-dioxido-4-thiomorpholinyl)methyl]-2-phenyl-N-(tetrahydro-2H-pyran-4-yl)-1H-indol-7-amine] | 100.00 | – | – | – | – | – | – | – | – | – | – | – | – | – | – | XRPD analysis after wet grinding in EtOH ([1]; manually ground 5 minutes in EtOH): no change; XRPD analysis after wet grinding in H2O ([1]; manually ground 5 minutes in H2O): no change; XRPD analysis after dry grinding ([1]; manually ground 5 minutes, mortar and pestle): no change; Stability judged among the 5 crystalline forms ([2]; 40° C., 75% relative humidity, 8 weeks): most stable crystalline form; Assay [2, 5]: 101.17%; Purity [2, 5]: 99.19%; XRPD Patterns [2, 5]: Pattern A; Assay [2, 6]: 102.12%; Purity [2, 6]: 98.69%; XRPD Patterns [2, 6]: Pattern A; Assay [2, 7]: 102.17%; Purity [2, 7]: 99.88%; XRPD Patterns [2, 7]: Pattern A; Purity [2, 8]: 98.85%; XRPD Patterns [2, 8]: Pattern A; Hygroscopicity ([3]; DVS, 40 to 90% RH): non-hygroscopic; Weight increase (water sorption) ([3]; DVS, 40 to 90% RH): Approximately 0.7%; XRPD analysis after DVS ([3]; after DVS cycle): no change in crystalline form; XRPD analysis after pressing into tablets and grinding [4]: no changes
2 | O=S1(=O)CCN(Cc2cc(NC3CCOCC3)c3[nH]c(-c4ccccc4)cc3c2)CC1 [Crystalline Form IV, 5-[(1,1-dioxido-4-thiomorpholinyl)methyl]-2-phenyl-N-(tetrahydro-2H-pyran-4-yl)-1H-indol-7-amine] | 100.00 | 101.81 | 99.73 | Pattern A | 105.36 | 99.88 | Pattern A | 99.58 | 99.87 | Pattern A | 104.25 | 99.86 | converted into Crystalline Form XII; also recorded: Pattern A | 99.87 | Pattern IV | –
3 | O=S1(=O)CCN(Cc2cc(NC3CCOCC3)c3[nH]c(-c4ccccc4)cc3c2)CC1 [Crystalline Form V, 5-[(1,1-dioxido-4-thiomorpholinyl)methyl]-2-phenyl-N-(tetrahydro-2H-pyran-4-yl)-1H-indol-7-amine] | 100.00 | 103.86 | 99.60 | Pattern A | 103.99 | 99.21 | Pattern A | 98.50 | 99.16 | Pattern A | 104.75 | 99.36 | converted into Crystalline Form XII; also recorded: Pattern A | 99.37 | Pattern V | –
4 | O=S1(=O)CCN(Cc2cc(NC3CCOCC3)c3[nH]c(-c4ccccc4)cc3c2)CC1 [Crystalline Form VIII, 5-[(1,1-dioxido-4-thiomorpholinyl)methyl]-2-phenyl-N-(tetrahydro-2H-pyran-4-yl)-1H-indol-7-amine] | 100.00 | 106.67 | 99.95 | Pattern A | 102.74 | 99.91 | Pattern A | 105.56 | 99.83 | Pattern A | 107.08 | 100.00 | converted into Crystalline Form XII; also recorded: Pattern A | 99.94 | Pattern VIII | –
5 | O=S1(=O)CCN(Cc2cc(NC3CCOCC3)c3[nH]c(-c4ccccc4)cc3c2)CC1 [Crystalline Form XI, 5-[(1,1-dioxido-4-thiomorpholinyl)methyl]-2-phenyl-N-(tetrahydro-2H-pyran-4-yl)-1H-indol-7-amine] | 100.00 | 95.79 | 99.70 | – | 105.59 | 99.36 | – | 103.58 | 99.56 | Pattern A | 104.04 | 99.58 | – | 99.55 | Pattern XI | –
